Holding throughout (type): functional
In assay [1] the test system is Escherichia coli. The experiment in a line: Antibacterial activity against Escherichia coli (Ec).
For a further assay, the system named is Bacillus subtilis. The experiment in a line: Antibacterial activity against Bacillus subtilis (Bs).
The test system of the next assay is Staphylococcus aureus. The experiment in a line: Antibacterial activity against methicillin resistant Staphylococcus aureus (MRSA).
In assay [2] the test system is Escherichia coli. The experiment in a line: Antibacterial activity against Escherichia coli +polymyxin (Ec+).

In brackets after ≈: the same amount, converted by molar mass.

Drawing on ChEMBL document CHEMBL1132085, “Analogues of 4,5-bis(3,5-dichlorophenyl)-2-trifluoromethyl-1H-imidazole as potential antibacterial agents” (1999), this text covers MIC for 13 molecules.

In the case of `FC(F)(F)c1nc(-c2cc(Cl)cc(Cl)c2)c(-c2cc(Cl)cc(Cl)c2)[nH]1`, the MIC with Escherichia coli [1] is above 32 µg/mL; in the assay with Bacillus subtilis, 4 µg/mL (≈ 9.39 µM); with Staphylococcus aureus it was 0.25 µg/mL (≈ 0.587 µM); with Escherichia coli [2], 16 µg/mL (≈ 37.6 µM).
In the same order, the values of `CSc1nc(-c2cc(Cl)cc(Cl)c2)c(-c2cc(Cl)cc(Cl)c2)[nH]1` are above 32 µg/mL, above 32 µg/mL, above 32 µg/mL and above 32 µg/mL.
Regarding `Clc1cc(Cl)cc(-c2nc[nH]c2-c2cc(Cl)cc(Cl)c2)c1`, the MIC against Escherichia coli [1] is above 32 µg/mL; in the assay on Bacillus subtilis, 4 µg/mL (≈ 11.2 µM); against Staphylococcus aureus, above 32 µg/mL; against Escherichia coli [2], 8 µg/mL (≈ 22.3 µM).
Regarding `CCNC(=O)c1nc(-c2cc(Cl)cc(Cl)c2)c(-c2cc(Cl)cc(Cl)c2)[nH]1`, the minimal inhibitory concentration (MIC) in the assay with Escherichia coli [1], against Bacillus subtilis, against Staphylococcus aureus and with Escherichia coli [2] was above 32 µg/mL throughout.
Take `COC(=O)c1nc(-c2cc(Cl)cc(Cl)c2)c(-c2cc(Cl)cc(Cl)c2)[nH]1`: the minimum inhibitory concentration (MIC) against Escherichia coli [1], in the assay with Bacillus subtilis, in the assay with Staphylococcus aureus and against Escherichia coli [2] was above 32 µg/mL in each case.
With `Oc1nc(-c2cc(Cl)cc(Cl)c2)c(-c2cc(Cl)cc(Cl)c2)[nH]1`, the minimum inhibitory concentration (MIC) was above 32 µg/mL with Escherichia coli [1], 4 µg/mL (≈ 10.7 µM) in the assay on Bacillus subtilis, 8 µg/mL (≈ 21.4 µM) in the assay on Staphylococcus aureus and 8 µg/mL (≈ 21.4 µM) against Escherichia coli [2].
`Cc1nc(-c2cc(Cl)cc(Cl)c2)c(-c2cc(Cl)cc(Cl)c2)[nH]1`: the MIC in the assay with Escherichia coli [1], against Bacillus subtilis, in the assay with Staphylococcus aureus and with Escherichia coli [2] was above 32 µg/mL in each case.
`CS(=O)(=O)c1nc(-c2cc(Cl)cc(Cl)c2)c(-c2cc(Cl)cc(Cl)c2)[nH]1`: the MIC was above 32 µg/mL in the assay with Escherichia coli [1], 4 µg/mL (≈ 9.17 µM) in the assay on Bacillus subtilis, 4 µg/mL (≈ 9.17 µM) against Staphylococcus aureus and 4 µg/mL (≈ 9.17 µM) in the assay with Escherichia coli [2].
Regarding `Nc1nc(-c2cc(Cl)cc(Cl)c2)c(-c2cc(Cl)cc(Cl)c2)[nH]1`, the MIC against Escherichia coli [1] is above 32 µg/mL; in the assay with Bacillus subtilis, 4 µg/mL (≈ 10.7 µM); against Staphylococcus aureus it was 2 µg/mL (≈ 5.36 µM); against Escherichia coli [2] it was 8 µg/mL (≈ 21.4 µM).
The like results for `FC(F)(F)c1nc(-c2cc(Cl)cc(Cl)c2)c[nH]1` were, in that order, above 32 µg/mL, 16 µg/mL (≈ 56.9 µM), 16 µg/mL (≈ 56.9 µM) and 8 µg/mL (≈ 28.5 µM).
The like results for `Cn1c(C(F)(F)F)nc(-c2cc(Cl)cc(Cl)c2)c1-c1cc(Cl)cc(Cl)c1` were, in that order, above 32 µg/mL, 4 µg/mL (≈ 9.09 µM), 8 µg/mL (≈ 18.2 µM) and above 32 µg/mL.
For the molecule `O=Cc1nc(-c2cc(Cl)cc(Cl)c2)c(-c2cc(Cl)cc(Cl)c2)[nH]1`, the MIC in the assay with Escherichia coli [1] is above 32 µg/mL; against Bacillus subtilis it was 2 µg/mL (≈ 5.18 µM); in the assay on Staphylococcus aureus, 2 µg/mL (≈ 5.18 µM); with Escherichia coli [2], above 32 µg/mL.
As to `Sc1nc(-c2cc(Cl)cc(Cl)c2)c(-c2cc(Cl)cc(Cl)c2)[nH]1`, the minimal inhibitory concentration (MIC) with Escherichia coli [1], against Bacillus subtilis, with Staphylococcus aureus and in the assay on Escherichia coli [2] was above 32 µg/mL each time.

One may read the MIC as the lowest concentration that inhibits growth of the organism.
